How the values were obtained:
Assay in all cases: Premier Screen kinase activity screening (33P ATP filter binding)
Assay type in all cases: biochemical
Settings in all cases: 10 μM SCO-101, mean of assay duplicates, read-out: Kinase activity (percentage of DMSO control)
PAK4 = molecular target: T1, PAK4 (Homo sapiens, UniProt O96013)
T1 construct: purchased MRC in Dundee (Premier Screen service)
Description: (§1) The kinase activity screening was done at MRC in Dundee. The screen was a so-called “Premier Screen” with 140 kinases. More specific information can be found here: http://www.kinase-screen.mrc.ac.uk/services/premier-screen
(§2) The method is based on a radioactive filter binding assay using 33P ATP (Hastie, et al 2006. Nat Protoc. 2006; 1(2):968-71; Bain, et al 2007. Biochem J. 2007 Dec. 15; 408(3):297-315). This method is sensitive, accurate and provides a direct measure of kinase enzyme activity. A concentration of 10 μM SCO-101 was used.
(§3) In the table below, the data is portrayed as the mean percentage activity of assay duplicates and a standard deviation. These percentage activities were calculated in comparison to DMSO controls. 10 μM SCO-101 reduced the activity of SRPK1 to 6% of the DMSO control.

MKK6 = molecular target: T2, MKK6 (Homo sapiens, UniProt P52564)
T2 construct: purchased MRC Dundee, Premier Screen (contract screening service)
Description: as §1, §2, §3

ABL = molecular target: T3, ABL (Homo sapiens, UniProt P00519)
T3 construct: MRC in Dundee (screening service)
Description: as §1, §2, §3

IRR = molecular target: T4, IRR (Homo sapiens, UniProt P14616)
T4 construct: purchased MRC in Dundee (Premier Screen service)
Description: as §1, §2, §3

BRSK2 = molecular target: T5, BRSK2 (Homo sapiens, UniProt Q8IWQ3)
T5 construct: MRC in Dundee (screening service)
Description: as §1, §2, §3

HIPK2 = molecular target: T6, HIPK2 (Homo sapiens, UniProt Q9H2X6)
T6 construct: purchased MRC in Dundee (Premier Screen service)
Description: as §1, §2, §3

ULK2 = molecular target: T7, ULK2 (Homo sapiens, UniProt Q8IYT8)
T7 construct: MRC Dundee (screening service)
Description: as §1, §2, §3

TESK1 = molecular target: T8, TESK1 (Homo sapiens, UniProt Q15569)
T8 construct: purchased MRC in Dundee (Premier Screen service)
Description: as §1, §2, §3

MARK4 = molecular target: T9, MARK4 (Homo sapiens, UniProt Q96L34)
T9 construct: MRC in Dundee (screening service)
Description: as §1, §2, §3

SGK1 = molecular target: T10, SGK1 (Homo sapiens, UniProt O00141, S422D)
T10 construct: purchased MRC Dundee, Premier Screen (contract screening service)
Description: as §1, §2, §3

MLK3 = molecular target: T11, MLK3 (Homo sapiens, UniProt Q16584)
T11 construct: purchased MRC Dundee, Premier Screen (contract screening service)
Description: as §1, §2, §3

ERK1 = molecular target: T12, ERK1 (Homo sapiens, UniProt P27361)
T12 construct: purchased MRC in Dundee (Premier Screen service)
Description: as §1, §2, §3

PKCa = PKCa (Homo sapiens, UniProt P17252)
Description: as §1, §2, §3

PDK1 = molecular target: T13, PDK1 (Homo sapiens, UniProt O15530)
T13 construct: purchased MRC Dundee, Premier Screen (contract screening service)
Description: as §1, §2, §3

IRAK1 = IRAK1 (Homo sapiens, UniProt P51617)
Description: as §1, §2, §3

PINK = molecular target: T14, PINK (Tribolium castaneum, UniProt D6WMX4)
T14 construct: purchased MRC Dundee, Premier Screen (contract screening service)
Description: as §1, §2, §3

CHK1 = molecular target: T15, CHK1 (Homo sapiens, UniProt O14757)
T15 construct: purchased MRC in Dundee (Premier Screen service)
Description: as §1, §2, §3

TGFBR1 = molecular target: T16, TGFBR1 (Homo sapiens, UniProt P36897)
T16 construct: purchased MRC Dundee, Premier Screen (contract screening service)
Description: as §1, §2, §3

PAK2 = molecular target: T17, PAK2 (Homo sapiens, UniProt Q13177)
T17 construct: MRC in Dundee (screening service)
Description: as §1, §2, §3

IGF-1R = molecular target: T18, IGF-1R (Homo sapiens, UniProt P08069)
T18 construct: purchased MRC in Dundee (Premier Screen service)
Description: as §1, §2, §3

JNK2 = molecular target: T19, JNK2 (Homo sapiens, UniProt P45984)
T19 construct: purchased MRC Dundee, Premier Screen (contract screening service)
Description: as §1, §2, §3

MKK2 = molecular target: T20, MKK2 (Homo sapiens, UniProt P36507)
T20 construct: MRC in Dundee (screening service)
Description: as §1, §2, §3

MPSK1 = MPSK1 (Homo sapiens, UniProt O75716)
Description: as §1, §2, §3

CHK2 = CHK2 (Homo sapiens, UniProt O96017)
Description: as §1, §2, §3

LKB1 = molecular target: T21, LKB1 (Homo sapiens, UniProt Q15831)
T21 construct: MRC Dundee (screening service)
Description: as §1, §2, §3

TIE2 = molecular target: T22, TIE2 (Homo sapiens, UniProt Q02763)
T22 construct: MRC Dundee (screening service)
Description: as §1, §2, §3

CK1γ2 = molecular target: T23, CK1γ2 (Homo sapiens, UniProt P78368)
T23 construct: purchased MRC Dundee, Premier Screen (contract screening service)
Description: as §1, §2, §3

RSK2 = molecular target: T24, RSK2 (Homo sapiens, UniProt P51812)
T24 construct: purchased MRC in Dundee (Premier Screen service)
Description: as §1, §2, §3

VEG-FR = molecular target: T25, VEG-FR (Homo sapiens, UniProt P17948)
T25 construct: purchased MRC in Dundee (Premier Screen service)
Description: as §1, §2, §3

ULK1 = ULK1 (Homo sapiens, UniProt O75385)
Description: as §1, §2, §3

Src = molecular target: T26, Src (Homo sapiens, UniProt P12931)
T26 construct: purchased MRC Dundee, Premier Screen (contract screening service)
Description: as §1, §2, §3

TSSK1 = molecular target: T27, TSSK1 (Homo sapiens, UniProt Q9BXA7)
T27 construct: MRC in Dundee (screening service)
Description: as §1, §2, §3

TLK1 = TLK1 (Homo sapiens, UniProt Q9UKI8)
Description: as §1, §2, §3

JAK3 = JAK3 (Homo sapiens, UniProt P52333)
Description: as §1, §2, §3

EPH-A4 = molecular target: T28, EPH-A4 (Homo sapiens, UniProt P54764)
T28 construct: MRC Dundee (screening service)
Description: as §1, §2, §3

PKA = molecular target: T29, PKA (Homo sapiens, UniProt P17612)
T29 construct: purchased MRC Dundee, Premier Screen (contract screening service)
Description: as §1, §2, §3

T23 sequence (P78368 whole entry): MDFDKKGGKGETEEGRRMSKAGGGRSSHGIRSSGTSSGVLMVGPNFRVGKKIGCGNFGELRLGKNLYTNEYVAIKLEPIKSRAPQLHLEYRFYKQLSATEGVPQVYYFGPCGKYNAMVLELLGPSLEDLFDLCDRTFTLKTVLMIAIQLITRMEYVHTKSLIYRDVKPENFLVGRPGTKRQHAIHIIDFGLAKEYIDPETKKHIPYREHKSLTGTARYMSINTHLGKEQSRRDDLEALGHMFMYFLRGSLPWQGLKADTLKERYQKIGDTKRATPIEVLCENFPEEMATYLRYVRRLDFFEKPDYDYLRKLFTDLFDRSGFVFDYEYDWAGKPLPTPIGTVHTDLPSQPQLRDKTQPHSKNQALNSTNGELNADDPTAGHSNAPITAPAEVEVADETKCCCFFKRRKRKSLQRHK
T19 sequence (P45984 whole entry, species assumed): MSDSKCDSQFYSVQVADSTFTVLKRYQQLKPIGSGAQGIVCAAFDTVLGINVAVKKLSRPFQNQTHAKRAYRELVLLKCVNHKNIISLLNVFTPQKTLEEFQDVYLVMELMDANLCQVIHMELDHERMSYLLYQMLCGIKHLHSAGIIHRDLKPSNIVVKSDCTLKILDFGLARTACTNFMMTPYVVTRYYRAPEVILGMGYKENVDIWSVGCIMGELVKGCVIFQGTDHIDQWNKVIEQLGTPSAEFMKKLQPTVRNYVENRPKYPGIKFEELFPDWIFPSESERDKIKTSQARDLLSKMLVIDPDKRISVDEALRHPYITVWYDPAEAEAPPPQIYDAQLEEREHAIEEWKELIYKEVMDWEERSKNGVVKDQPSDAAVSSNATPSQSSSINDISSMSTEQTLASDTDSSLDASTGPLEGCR
T14 sequence (D6WMX4 6-570): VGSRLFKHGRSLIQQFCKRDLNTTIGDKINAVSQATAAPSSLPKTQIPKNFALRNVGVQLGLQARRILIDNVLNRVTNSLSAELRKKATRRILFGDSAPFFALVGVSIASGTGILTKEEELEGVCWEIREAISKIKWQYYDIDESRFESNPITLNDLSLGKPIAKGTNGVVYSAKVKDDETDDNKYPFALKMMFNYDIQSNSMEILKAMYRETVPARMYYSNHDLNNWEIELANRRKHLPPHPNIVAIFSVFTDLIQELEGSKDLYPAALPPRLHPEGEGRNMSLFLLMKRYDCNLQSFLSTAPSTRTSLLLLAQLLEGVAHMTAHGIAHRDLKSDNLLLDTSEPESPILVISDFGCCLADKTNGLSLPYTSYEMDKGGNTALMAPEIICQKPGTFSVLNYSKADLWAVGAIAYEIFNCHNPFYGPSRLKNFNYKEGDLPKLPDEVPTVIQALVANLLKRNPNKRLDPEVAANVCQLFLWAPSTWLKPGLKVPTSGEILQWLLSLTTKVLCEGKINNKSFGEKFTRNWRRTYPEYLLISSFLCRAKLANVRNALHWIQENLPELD
T25 sequence (P17948 784-1338 limits assumed): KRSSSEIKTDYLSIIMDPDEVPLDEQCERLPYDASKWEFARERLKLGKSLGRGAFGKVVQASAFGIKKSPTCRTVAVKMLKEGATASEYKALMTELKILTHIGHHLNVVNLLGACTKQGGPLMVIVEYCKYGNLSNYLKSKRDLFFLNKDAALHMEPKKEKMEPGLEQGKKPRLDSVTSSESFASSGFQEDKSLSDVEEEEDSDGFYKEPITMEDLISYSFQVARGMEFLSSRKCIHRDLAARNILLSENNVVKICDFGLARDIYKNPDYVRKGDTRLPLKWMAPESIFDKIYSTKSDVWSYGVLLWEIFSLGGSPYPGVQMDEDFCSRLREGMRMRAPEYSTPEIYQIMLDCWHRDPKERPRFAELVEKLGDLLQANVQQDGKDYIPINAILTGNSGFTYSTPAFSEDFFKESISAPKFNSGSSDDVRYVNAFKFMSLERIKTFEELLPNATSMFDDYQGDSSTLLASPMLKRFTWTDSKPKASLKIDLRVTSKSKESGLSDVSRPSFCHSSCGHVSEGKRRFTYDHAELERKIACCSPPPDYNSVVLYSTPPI
T7 sequence (Q8IYT8 whole entry, species assumed): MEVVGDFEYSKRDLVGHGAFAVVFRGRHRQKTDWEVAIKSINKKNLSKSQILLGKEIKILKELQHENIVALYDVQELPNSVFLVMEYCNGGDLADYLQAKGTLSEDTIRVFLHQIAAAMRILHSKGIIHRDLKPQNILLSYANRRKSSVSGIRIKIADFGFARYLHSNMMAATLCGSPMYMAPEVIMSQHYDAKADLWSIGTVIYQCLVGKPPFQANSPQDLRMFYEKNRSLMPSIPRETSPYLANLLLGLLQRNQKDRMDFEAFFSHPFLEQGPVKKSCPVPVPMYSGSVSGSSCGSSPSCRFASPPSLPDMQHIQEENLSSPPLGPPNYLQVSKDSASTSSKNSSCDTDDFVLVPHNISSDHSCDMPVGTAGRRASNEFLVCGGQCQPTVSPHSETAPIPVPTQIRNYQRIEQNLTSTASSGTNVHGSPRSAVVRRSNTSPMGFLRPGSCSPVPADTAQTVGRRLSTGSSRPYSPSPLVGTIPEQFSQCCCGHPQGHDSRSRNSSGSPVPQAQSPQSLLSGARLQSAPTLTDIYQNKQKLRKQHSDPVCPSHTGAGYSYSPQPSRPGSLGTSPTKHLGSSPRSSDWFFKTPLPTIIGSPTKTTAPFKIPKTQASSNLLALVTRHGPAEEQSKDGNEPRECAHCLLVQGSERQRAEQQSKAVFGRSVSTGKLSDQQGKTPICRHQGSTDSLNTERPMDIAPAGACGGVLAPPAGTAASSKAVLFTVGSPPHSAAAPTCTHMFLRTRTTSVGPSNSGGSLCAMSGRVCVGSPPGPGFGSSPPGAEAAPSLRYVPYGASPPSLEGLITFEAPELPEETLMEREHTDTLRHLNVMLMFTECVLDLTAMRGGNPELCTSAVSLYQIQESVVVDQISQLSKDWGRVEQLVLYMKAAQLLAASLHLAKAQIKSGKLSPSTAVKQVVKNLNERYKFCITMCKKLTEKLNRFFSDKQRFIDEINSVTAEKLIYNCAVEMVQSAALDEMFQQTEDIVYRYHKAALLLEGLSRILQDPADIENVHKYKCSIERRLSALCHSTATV
T27 sequence (Q9BXA7 whole entry, species assumed): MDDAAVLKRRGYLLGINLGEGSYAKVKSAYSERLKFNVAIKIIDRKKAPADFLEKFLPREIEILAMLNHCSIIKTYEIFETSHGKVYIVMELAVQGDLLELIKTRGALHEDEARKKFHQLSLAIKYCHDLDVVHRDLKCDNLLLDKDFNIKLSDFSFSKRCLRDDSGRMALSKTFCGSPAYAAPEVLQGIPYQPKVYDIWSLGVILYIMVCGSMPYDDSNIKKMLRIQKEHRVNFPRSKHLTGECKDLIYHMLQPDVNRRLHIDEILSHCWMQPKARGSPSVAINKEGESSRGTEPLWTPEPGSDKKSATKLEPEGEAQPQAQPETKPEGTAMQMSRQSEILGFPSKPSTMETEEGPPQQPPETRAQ
T20 sequence (P36507 whole entry, species assumed): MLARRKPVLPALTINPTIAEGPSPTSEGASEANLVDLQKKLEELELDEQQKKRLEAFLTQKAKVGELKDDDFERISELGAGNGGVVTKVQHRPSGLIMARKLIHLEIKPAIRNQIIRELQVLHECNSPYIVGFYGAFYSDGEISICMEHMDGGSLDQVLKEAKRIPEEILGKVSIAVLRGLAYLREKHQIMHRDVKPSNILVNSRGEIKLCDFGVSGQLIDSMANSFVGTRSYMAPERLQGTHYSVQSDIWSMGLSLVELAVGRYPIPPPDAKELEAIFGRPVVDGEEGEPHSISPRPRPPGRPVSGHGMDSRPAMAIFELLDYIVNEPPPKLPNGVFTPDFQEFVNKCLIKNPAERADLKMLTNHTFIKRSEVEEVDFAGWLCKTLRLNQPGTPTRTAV
T16 sequence (P36897 34-503, species assumed): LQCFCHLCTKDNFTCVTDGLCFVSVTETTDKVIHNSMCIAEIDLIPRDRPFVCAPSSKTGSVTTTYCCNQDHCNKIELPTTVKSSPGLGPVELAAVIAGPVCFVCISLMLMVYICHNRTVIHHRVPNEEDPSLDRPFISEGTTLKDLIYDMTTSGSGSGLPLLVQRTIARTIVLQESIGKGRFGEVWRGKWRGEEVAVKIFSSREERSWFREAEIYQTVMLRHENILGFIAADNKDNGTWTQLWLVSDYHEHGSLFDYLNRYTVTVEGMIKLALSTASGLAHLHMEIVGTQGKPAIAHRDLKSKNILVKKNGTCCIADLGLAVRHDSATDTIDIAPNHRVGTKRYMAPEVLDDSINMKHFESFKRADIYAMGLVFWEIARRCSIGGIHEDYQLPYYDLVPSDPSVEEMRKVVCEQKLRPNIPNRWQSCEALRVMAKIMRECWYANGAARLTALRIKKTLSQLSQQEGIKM
T17 sequence (Q13177 whole entry, species assumed): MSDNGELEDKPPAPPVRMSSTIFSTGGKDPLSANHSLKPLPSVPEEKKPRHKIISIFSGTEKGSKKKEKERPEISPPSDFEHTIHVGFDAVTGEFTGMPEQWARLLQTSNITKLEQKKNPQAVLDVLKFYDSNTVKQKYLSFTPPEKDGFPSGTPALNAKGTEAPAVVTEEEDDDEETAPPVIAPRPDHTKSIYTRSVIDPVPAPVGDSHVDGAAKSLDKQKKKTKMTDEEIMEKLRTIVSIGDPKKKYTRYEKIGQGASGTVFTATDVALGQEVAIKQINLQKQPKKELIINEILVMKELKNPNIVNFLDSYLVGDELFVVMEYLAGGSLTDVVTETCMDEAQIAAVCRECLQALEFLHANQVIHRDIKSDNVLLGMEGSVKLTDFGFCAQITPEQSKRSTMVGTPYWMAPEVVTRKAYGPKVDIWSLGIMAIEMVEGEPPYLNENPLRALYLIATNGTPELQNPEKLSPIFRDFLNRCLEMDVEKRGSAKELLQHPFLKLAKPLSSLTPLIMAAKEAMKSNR

In the case of `O=C(Nc1cc(C(F)(F)F)cc(C(F)(F)F)c1)Nc1ccc(Br)cc1-c1nnn[nH]1` [SCO-101], the remaining activity at 10 µM (PAK4) is reported as 38%, the remaining activity at 10 µM (MKK6) is reported as 108% and the remaining activity at 10 µM (ABL) is reported as 85%. The remaining activity at 10 µM (IRR) was 131%, the remaining activity at 10 µM (BRSK2) was 81% and the remaining activity at 10 µM (HIPK2) was 139%. It also gave a remaining activity at 10 µM (ULK2) of 95%, a remaining activity at 10 µM (TESK1) of 54% and a remaining activity at 10 µM (MARK4) of 90%. It also gave a remaining activity at 10 µM (SGK1) of 103%, a remaining activity at 10 µM (MLK3) of 110% and a remaining activity at 10 µM (ERK1) of 137%. It also gave a remaining activity at 10 µM (PKCa) of 116%, a remaining activity at 10 µM (PDK1) of 108% and a remaining activity at 10 µM (IRAK1) of 115%. It also gave a remaining activity at 10 µM (PINK) of 104%, a remaining activity at 10 µM (CHK1) of 195% and a remaining activity at 10 µM (TGFBR1) of 111%. It also gave a remaining activity at 10 µM (PAK2) of 83%, a remaining activity at 10 µM (IGF-1R) of 128% and a remaining activity at 10 µM (JNK2) of 105%. It also gave a remaining activity at 10 µM (MKK2) of 94%, a remaining activity at 10 µM (MPSK1) of 115% and a remaining activity at 10 µM (CHK2) of 114%. It also gave a remaining activity at 10 µM (LKB1) of 96%, a remaining activity at 10 µM (TIE2) of 95% and a remaining activity at 10 µM (CK1γ2) of 109%. The remaining activity at 10 µM (RSK2) was 64%, the remaining activity at 10 µM (VEG-FR) was 66% and the remaining activity at 10 µM (ULK1) was 114%. For the same compound, the remaining activity at 10 µM (Src) was 105%, the remaining activity at 10 µM (TSSK1) was 83% and the remaining activity at 10 µM (TLK1) was 122%. The remaining activity at 10 µM (JAK3) was 121%, the remaining activity at 10 µM (EPH-A4) was 101% and the remaining activity at 10 µM (PKA) was 106%.
